The experiment deals with Mycobacterium tuberculosis variant bovis. Kind of experiment: GSK_TB: Effect of compound calculated as % inhibition at single shot or pIC50 ( pIC50 ATP assay M.bovis). The class given is functional, organism-based. The conditions noted are these: BCG / Pasteur.

As for `NC(=O)c1cc2ccc(CC(=O)c3cccs3)cc2s1`, the IC50 was 15.8 µM.

Regarding `COC(=O)c1ccc(Oc2ccc(-c3csc(C)n3)cc2F)nn1`, the IC50 is 20 µM. For `COc1ccc(-c2nnc3sc(Cc4csc(C)n4)nn23)cc1` the value was 5.01 µM; for `O=C(NCc1ccoc1)N1CCN(Cc2ccc3c(c2)OCO3)CC1`, 1.26 µM. For `Cc1ccc2oc(SCC(=O)Nc3nccs3)nc2n1` the value was 6.31 µM. Take `CCOCn1ccc(NS(=O)(=O)c2ccc(N)cc2)nc1=O`: the IC50 was 3.16 µM. For the molecule `O=C(Nc1nc(-c2ccccn2)cs1)N1CCC(Cc2ccc(F)cc2)CC1`, the IC50 is 3.98 µM. Turning to `NS(=O)(=O)c1ccc(Nc2cnc3ccccc3n2)cc1`, the IC50 is 6.31 µM. `NC(=O)c1ccc(CN(C2CC2)S(=O)(=O)c2ccccc2F)cc1`: the IC50 is 12.6 µM. For `N#Cc1ncn(-c2ccc3nnc(C(F)(F)F)n3n2)n1` the value was 7.94 µM; for `O=C(O)CCc1nc2ccccc2oc1=O`, 7.94 µM; for `CC(C)Oc1ccc(-c2nnc(-c3ccc4c(c3)CCNCC4)s2)cc1Cl`, 2.51 µM.

Turning to `N#Cc1cccc(-c2ccc(NC[C@H]3CC[C@]4(CC3)CN(c3cccnn3)C(=O)O4)nc2)c1`, the IC50 was 25.1 µM.

As to `Fc1cccc(Oc2cc(C3CCCNC3)nc(-c3ccncc3)n2)c1` (stereo not given), the IC50 is 12.6 µM. Then `O=C(Nc1nc2c(s1)CCCc1cccnc1-2)c1ccccc1C(F)(F)F`, with 2.51 µM; and `Nc1ccc(C(O)CNCCc2ccccc2)cc1O` (stereo not given), with 2 µM; and `FC(F)(F)Oc1ccc(-c2cc3ccncc3cc2OC2CCNCC2)cc1`, with 3.16 µM. For `c1ccc(-c2ncc(-c3ccc(OCCCn4ccnc4)cc3)s2)cc1` the value was 7.94 µM; for `CC(C)c1noc(N2CCC([C@H](C)Oc3cnc(-c4ccc(S(C)(=O)=O)c(F)c4)cn3)CC2)n1`, 6.31 µM; for `CCCCc1ccc(C(=O)Nc2nnc(S(=O)(=O)CCCC)s2)nc1`, 7.94 µM. As for `O=C(NCc1ccco1)N1CCN(Cc2ccc3c(c2)CCO3)CC1`, the IC50 was 2.51 µM.

As for `CCOc1cc2ccccc2cc1C(=O)NC`, the IC50 was 6.31 µM. Take `COc1ccc(Nc2nc(N[C@@H]3CCNC3)nc3cc[nH]c(=O)c23)cc1NC(=O)c1ccccc1`: the IC50 was 5.01 µM. Then `Fc1ccc(Cc2nnc(-c3ccnc(Nc4ccc(OCCN5CCOCC5)cc4)n3)[nH]2)cc1`, with 7.94 µM; and `COc1ccc(Nc2ncccc2N)cc1`, with 0.794 µM. On to `Nc1ccccc1Nc1ccc(Cl)cc1`, for which the IC50 was 0.1 µM. For the molecule `O=C(NCc1ccco1)N1CCN(Cc2ccc(Cl)s2)CC1`, the IC50 is 1.26 µM. For `CC1CC1c1ccc(CN2CCc3nc(Nc4ccccc4)sc3CC2)o1` (stereo not given) the value was 6.31 µM. On to `O=C(NCCO)c1c(O)c2ncc(Cc3ccc(F)cc3C(F)(F)F)cc2[nH]c1=O`, for which the half-inhibitory concentration (IC50) was 5.01 µM.

As to `O=C(NCc1ccco1)N1CCN(Cc2cccs2)CC1`, the IC50 was 7.94 µM. On to `N#Cc1cc(C(F)(F)F)c2nc(C(=O)NCc3cccs3)c(Cl)n2c1`, for which the 50% inhibitory concentration (IC50) was 6.31 µM. Then `COc1ccc(CN2CCN(C(=O)/C=C/c3csc(C)n3)CC2)cc1`, with 5.01 µM; and `CCCC/C=C/c1cc2ccncc2cc1OC1CCNCC1`, with 2.51 µM; and `CNc1nc(SC)nnc1-c1cccc(Cl)c1Cl`, with 12.6 µM.

Consider `Cc1nc(Nc2cnn(Cc3ccccc3F)c2)c2nn(C)c(C)c2n1`, for which the IC50 is 2.51 µM. Then `O=[N+]([O-])c1cnc(-c2nc3ccccc3[nH]2)s1`, with 3.98 µM. Then `CNc1snc(C)c1C(=O)NCCOc1ccc(OC)cc1`, with 3.16 µM; and `O=S(=O)(NCc1ccccc1)c1ccc(-c2cc3ccncc3cc2OC2CCNCC2)s1`, with 2 µM. `CC(C)N(C(=O)CNc1ccccc1Nc1ccccc1)c1ccccc1`: the IC50 was 6.31 µM. Then `COc1ccc2nccc(NC(=O)C3CCN(CCc4ccc(Cl)cc4)CC3)c2n1`, with 5.01 µM; and `CCCCNCC1COc2ccc(OC)cc2C1=O` (stereo not given), with 6.31 µM; and `Cn1cc(CCNC(=O)Nc2ccc(N3CCCCC3)nc2)cn1`, with 20 µM. As for `COc1ccc(CCNC(=O)C2(n3cnnn3)CCCCC2)cc1`, the IC50 was 3.98 µM. For `Cc1c(C(=O)NCCOc2ccccc2)[nH]c2c1C(=O)CCC2` the value was 7.94 µM; for `Clc1nnc(N2CCCC2)c2ccccc12`, 3.16 µM. Then `NCC(c1cccs1)S(=O)(=O)c1ccccc1` (stereo not given), with 5.01 µM. In the case of `CN(Cc1ccc(Cl)cc1)C(=O)CCc1nc2ccccc2oc1=O`, the IC50 is 3.98 µM. Then `Nc1ccc(S(=O)(=O)Nc2ccnn2-c2ccccc2)cc1` [SULFAPHENAZOLE], with 10 µM; and `FC(F)(F)c1nnc2ccc(Sc3nnc(-c4ccco4)o3)nn12`, with 3.16 µM; and `Cc1ccc2c(c1)c(=O)cc(C(F)(F)F)n2CCNC(=O)c1ccccn1`, with 6.31 µM.

The values are drawn from ChEMBL document CHEMBL3637782, “GSK Tres Cantos Follow-up TB Screening Data” (2016).
